We go through 28 compounds from US11478478B2, “2,3-disubstituted 1-acyl-4-amino-1,2,3,4-tetrahydroquinoline derivatives and their use as bromodomain inhibitors” (GLAXOSMITHKLINE INTELLECTUAL PROPERTY (NO.2) LIMITED, priority 2013, dated 2022).

The target in the experiment is T1, BRD4 BD2 (Homo sapiens, UniProt O60885, Y97A).
T1 construct: BRD4 (1-477) (Y97A) and (Y390A); made in house; host or cells: E. coli (pET15b vector)
Description: TR-FRET binding assay, BRD4 BD2 (BD1-mutated protein). The note with it: read-out: pIC50 in the BRD4 BD2 assay (converted). The method, boiled down: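 Displacement of Alexa Fluor647-labelled bromodomain ligand (at Kd) from 10 nM His-tagged BRD4 (1-477, Y97A) read by Eu-anti-His TR-FRET (665/615 ratio) in pH 7.4 HEPES buffer, 0.5% DMSO. Compound preincubated 30 min at rt, detection ≥30 min. pIC50 derived from four-parameter fit after normalisation to controls.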
Consider `CC(=O)N1c2ccc(C(=O)O)cc2[C@H](Nc2ccc(S(C)(=O)=O)cc2)[C@@H](C)[C@@H]1C1CC1` [Example 332, (2S,3R,4)-1-acetyl-2-cyclopropyl-3-methyl-4-((4-(methylsulfonyl)phenyl)amino)-1,2,3,4-tetrahydroquinoline-6-carboxylic acid], for which the IC50 is 1000 to 100000 nM.
In the case of `COc1cnc(N[C@H]2c3cc(C(N)=O)ccc3N(C(C)=O)[C@@H](C3CC3)[C@@H]2C)nc1C` [Example 348, (2S,3R,4R)-1-acetyl-2-cyclopropyl-4-((5-methoxy-4-methylpyrimidin-2-yl)amino)-3-methyl-1,2,3,4-tetrahydroquinoline-6-carboxamide], the IC50 is 1000 to 100000 nM.
The figure for `CC(=O)N1c2ccc(C(N)=O)cc2[C@H](Nc2cccc(CO)n2)[C@@H](C)[C@@H]1C1CC1` [Example 350, (2S,3R,4R)-1-acetyl-2-cyclopropyl-4-((6-(hydroxymethyl)pyridin-2-yl)amino)-3-methyl-1,2,3,4-tetrahydroquinoline-6-carboxamide] is 100 nM.
Regarding `CC(=O)N1c2ccc(C(N)=O)cc2[C@H](Nc2cccc(F)c2)[C@@H](C)[C@@H]1C1CC1` [Example 359, (2S,3R,4R)-1-acetyl-2-cyclopropyl-4-((3-fluorophenyl)amino)-3-methyl-1,2,3,4-tetrahydroquinoline-6-carboxamide], the IC50 is 100 nM.
The figure for `COc1cccc(N[C@H]2c3cc(C(N)=O)ccc3N(C(C)=O)[C@@H](C3CC3)[C@@H]2C)c1` [Example 360, (2S,3R,4R)-1-acetyl-2-cyclopropyl-4-((3-methoxyphenyl)amino)-3-methyl-1,2,3,4-tetrahydroquinoline-6-carboxamide] is 100 nM.
The figure for `CC(=O)N1c2ccc(C(N)=O)cc2[C@H](Nc2ccc(C#N)cc2)[C@@H](C)[C@@H]1C1CC1` [Example 378, (2S,3R,4R)-1-acetyl-4-((4-cyanophenyl)amino)-2-cyclopropyl-3-methyl-1,2,3,4-tetrahydroquinoline-6-carboxamide] is 100 nM; for `CC(=O)N1c2ccc(C(N)=O)cc2[C@H](Nc2ccc(Cl)cn2)[C@@H](C)[C@@H]1C1CC1` [Example 379, (2S,3R,4R)-1-acetyl-4-((5-chloropyridin-2-yl)amino)-2-cyclopropyl-3-methyl-1,2,3,4-tetrahydroquinoline-6-carboxamide] it is 100 nM; for `CC(=O)N1c2ccc(C(N)=O)cc2[C@H](Nc2nccc(N(C)C)n2)[C@@H](C)[C@@H]1C1CC1` [Example 387, (2S,3R,4R)-1-acetyl-2-cyclopropyl-4-((4-(dimethylamino)pyrimidin-2-yl)amino)-3-methyl-1,2,3,4-tetrahydroquinoline-6-carboxamide] it is 1000 to 100000 nM.
The result for `COc1cc(C#N)ccc1N[C@H]1c2cc(C(N)=O)ccc2N(C(C)=O)[C@@H](C2CC2)[C@@H]1C` [Example 390, (2S,3R,4R)-1-acetyl-4-((4-cyano-2-methoxyphenyl)amino)-2-cyclopropyl-3-methyl-1,2,3,4-tetrahydroquinoline-6-carboxamide] reads 100 nM; that for `CC(=O)N1c2ccc(C(N)=O)cc2[C@H](Nc2cnc(C#N)c(Cl)c2)[C@@H](C)[C@@H]1C1CC1` [Example 391, (2S,3R,4R)-1-acetyl-4-((5-chloro-6-cyanopyridin-3-yl)amino)-2-cyclopropyl-3-methyl-1,2,3,4-tetrahydroquinoline-6-carboxamide], 1000 to 100000 nM.
For the compound `COc1ccc(N[C@H]2c3cc(C(N)=O)ccc3N(C(C)=O)[C@@H](C3CC3)[C@@H]2C)c(C#N)c1` [Example 392, (2S,3R,4R)-1-acetyl-4-((2-cyano-4-methoxyphenyl)amino)-2-cyclopropyl-3-methyl-1,2,3,4-tetrahydroquinoline-6-carboxamide], the IC50 was 100 nM.
As to `CC(=O)N1c2ccc(C(N)=O)cc2[C@H](Nc2ncccn2)[C@@H](C)[C@@H]1C1CC1` [Example 399, (2S,3R,4R)-1-acetyl-2-cyclopropyl-3-methyl-4-(pyrimidin-2-ylamino)-1,2,3,4-tetrahydroquinoline-6-carboxamide], the IC50 was 100 nM.
For the compound `CC(=O)N1c2ccc(C(N)=O)cc2[C@H](Nc2ccc(C#N)cn2)[C@@H](C)[C@@H]1C1CC1` [Example 400, (2S,3R,4R)-1-acetyl-4-((5-cyanopyridin-2-yl)amino)-2-cyclopropyl-3-methyl-1,2,3,4-tetrahydroquinoline-6-carboxamide], the IC50 was 100 nM.
The figure for `CC(=O)N1c2ccc(C(N)=O)cc2[C@H](Nc2ncc(Cl)cn2)[C@@H](C)[C@@H]1C1CC1` [Example 403, (2S,3R,4R)-1-acetyl-4-((5-chloropyrimidin-2-yl)amino)-2-cyclopropyl-3-methyl-1,2,3,4-tetrahydroquinoline-6-carboxamide] is 100 nM; for `CCc1ccnc(N[C@H]2c3cc(C(N)=O)ccc3N(C(C)=O)[C@@H](C3CC3)[C@@H]2C)n1` [Example 407, (2S,3R,4R)-1-acetyl-2-cyclopropyl-4-((4-ethylpyrimidin-2-yl)amino)-3-methyl-1,2,3,4-tetrahydroquinoline-6-carboxamide] it is 100 nM.
The result for `CC(=O)N1c2ccc(C(N)=O)cc2[C@H](Nc2nc(C)cc(C)n2)[C@@H](C)[C@@H]1C1CC1` [Example 408, (2S,3R,4R)-1-acetyl-2-cyclopropyl-4-((4,6-dimethylpyrimidin-2-yl)amino)-3-methyl-1,2,3,4-tetrahydroquinoline-6-carboxamide] reads 1000 to 100000 nM; that for `CC(=O)N1c2ccc(C(N)=O)cc2[C@H](Nc2nccc(C(C)C)n2)[C@@H](C)[C@@H]1C1CC1` [Example 411, (2S,3R,4R)-1-acetyl-2-cyclopropyl-4-((4-isopropylpyrimidin-2-yl)amino)-3-methyl-1,2,3,4-tetrahydroquinoline-6-carboxamide], 100 nM; that for `CC(=O)N1c2ccc(C(N)=O)cc2[C@H](Nc2nccc(C3=CCOCC3)n2)[C@@H](C)[C@@H]1C1CC1` [Example 413], 100 nM.
The figure for `CC(=O)N1c2ccc(C(N)=O)cc2[C@H](Nc2ncccc2C(N)=O)[C@@H](C)[C@@H]1C1CC1` [Example 418, (2S,3R,4R)-1-acetyl-4-((3-carbamoylpyridin-2-yl)amino)-2-cyclopropyl-3-methyl-1,2,3,4-tetrahydroquinoline-6-carboxamide] is 100 nM; for `Cc1ccnc(N[C@H]2c3cc(C(N)=O)ccc3N(C(=O)C(C)C)[C@@H](C3CC3)[C@@H]2C)n1` [Example 422, (2S,3R,4R)-2-cyclopropyl-1-isobutyryl-3-methyl-4-((4-methylpyrimidin-2-yl)amino)-1,2,3,4-tetrahydroquinoline-6-carboxamide] it is 1000 to 100000 nM; for `CC(=O)N1c2ccc(C(=O)NCCO)cc2[C@H](Nc2ncc(F)c(C)n2)[C@@H](C)[C@@H]1C` [Example 430, (2S,3R,4R)-1-acetyl-4-((5-fluoro-4-methylpyrimidin-2-yl)amino)-N-(2-hydroxyethyl)-2,3-dimethyl-1,2,3,4-tetrahydroquinoline-6-carboxamide] it is 100 nM.
Turning to `CC(=O)N1c2ccc(C(=O)NCCO)cc2[C@H](Nc2ccc(F)c(C)n2)[C@@H](C)[C@@H]1C` [Example 433, (2S,3R,4R)-1-acetyl-4-((5-fluoro-6-methylpyridin-2-yl)amino)-N-(2-hydroxyethyl)-2,3-dimethyl-1,2,3,4-tetrahydroquinoline-6-carboxamide], the IC50 is 100 nM.
The figure for `CC(=O)N1c2ccc(C(=O)NCCO)cc2[C@H](Nc2ccnc(C)n2)[C@@H](C)[C@@H]1C1CC1` [Example 441, (2S,3R,4R)-1-acetyl-2-cyclopropyl-N-(2-hydroxyethyl)-3-methyl-4-((2-methylpyrimidin-4-yl)amino)-1,2,3,4-tetrahydroquinoline-6-carboxamide] is 1000 to 100000 nM.
The figure for `CC(=O)N1c2ccc(C(=O)NC3CCOCC3)cc2[C@H](Nc2ccc(F)cn2)[C@@H](C)[C@@H]1C1CC1` [Example 469, (2S,3R,4R)-1-acetyl-2-cyclopropyl-4-((5-fluoropyridin-2-yl)amino)-3-methyl-N-(tetrahydro-2H-pyran-4-yl)-1,2,3,4-tetrahydroquinoline-6-carboxamide] is 100 nM.
The result for `COCCNC(=O)c1ccc2c(c1)[C@H](Nc1ccc(F)cn1)[C@@H](C)[C@H](C1CC1)N2C(C)=O` [Example 471, (2S,3R,4R)-1-acetyl-2-cyclopropyl-4-((5-fluoropyridin-2-yl)amino)-N-(2-methoxyethyl)-3-methyl-1,2,3,4-tetrahydroquinoline-6-carboxamide] reads 100 nM.
As to `CC(=O)N1c2ccc(C(=O)NCCO)cc2[C@H](Nc2ccc(F)cn2)[C@@H](C)[C@@H]1C` [Example 479, (2S,3R,4R)-1-acetyl-4-((5-fluoropyridin-2-yl)amino)-N-(2-hydroxyethyl)-2,3-dimethyl-1,2,3,4-tetrahydroquinoline-6-carboxamide], the IC50 is 100 nM.
The result for `COCCCNC(=O)c1ccc2c(c1)[C@H](Nc1cccc(C)n1)[C@@H](C)[C@H](C1CC1)N2C(C)=O` [Example 480, (2S,3R,4R)-1-acetyl-2-cyclopropyl-N-(3-methoxypropyl)-3-methyl-4-((6-methylpyridin-2-yl)amino)-1,2,3,4-tetrahydroquinoline-6-carboxamide] reads 100 nM; that for `CC(=O)N1c2ccc(C(=O)NC3CCOCC3)cc2[C@H](Nc2ncccn2)[C@@H](C)[C@@H]1C1CC1` [Example 484, (2S,3R,4R)-1-acetyl-2-cyclopropyl-3-methyl-4-(pyrimidin-2-ylamino)-N-(tetrahydro-2H-pyran-4-yl)-1,2,3,4-tetrahydroquinoline-6-carboxamide], 100 nM.
